Assays:
[1] = target: T1, interaction between newly-formed cTLR2 and MyD88 (Mus musculus, UniProt Q9QUN7); assay: MyD88 immunoprecipitation / c-Myc western blot in BV-2 cells transduced with pLenti-cMyc-cTlr2; type: cell-based; settings: transduced BV-2 cells, fibrillar Aβ1-42 for 1 h
T1 construct: The cTLR2 (640-784 amino acids) tagged with c-myc was cloned in lenti vector; expressed in transfected cells; host or cells: BV-2 microglial cells transduced with pLenti-cMyc-cTlr2 lentivirions

[2] = tested on: 5×FAD Tg mice; assay: Glial activation and NF-κB in hippocampus of 5×FAD Tg mice; type: in vivo, mouse; settings: 0.1 mg/kg body wt/2 d intranasal, 30 d
Description: (§1) FIG. 5 (A-Q). […] Actin was run as loading control. […] M) Hippocampal sections were immunolabeled with 82E1 mAb. […] Arrowhead indicates 4 kDa Aβ band.
FIG. 18 (A-B). After intranasal delivery, wtTIDM peptide suppresses the activation of NF-κB in the hippocampus of Tg mice. […] After 30 d of treatment, hippocampal extracts of all groups of mice were immunoblotted for phospho-p65 (A). Actin was run as loading control.
FIG. 19. Intranasal delivery of wtTIDM, but not mTIDM, peptide suppresses microglial expression of iNOS in the hippocampus of Tg mice. […] After 30 d of treatment, mice were sacrificed and hippocampal sections were double-labeled for Iba-1 and iNOS. Results represent analysis of two sections from each of six different mice per group.
(§2) B6SJL-Tg (APPSwFlLon,PSEN1*M146L*L286V) 6799Vas/J transgenic (5×FAD or termed here as Tg) mice were purchased from Jackson Laboratories (Bar Harbor, ME). […] Briefly, TIDM peptides were dissolved in 5 μl normal saline, mice were hold in supine position and saline was delivered into one nostril using a pipetman.
Mice were anesthetized with ketamine-xylazine injectables and perfused with PBS and then with 4% (w/v) paraformaldehyde in PBS followed by dissection of the brain from each mouse for immunofluorescence microscopy (23, 59). […] The samples were mounted and observed under an Olympus IX81 fluorescence microscope. […]

[3] = tested on: 5×FAD Tg mice; assay: Amyloid plaque / Aβ load in 5×FAD Tg mice; type: in vivo, mouse; settings: 0.1 mg/kg body wt/2 d intranasal, 30 d
Protocol: as §1
FIG. 20 (A-B). Intranasal delivery of wtTIDM, but not mTIDM, peptide lowers the burden of amyloid plaques in the hippocampus of Tg mice. […] Actin was run as loading control. […] Results were analyzed by two-sample t-tests.
FIG. 21 (A-F). Intranasal delivery of wtTIDM, but not mTIDM, peptide reduces the levels of Aβ1-40 and Aβ1-42 in serum and hippocampus of Tg mice. […] After 30 d of treatment. ELISA quantification of Aβ1-40 (A, C & E) and Aβ1-42 (B, D & F) was performed in serum (A & B) and TBS (C & D) and (TBS+Triton X-100) (E & F) extracted hippocampal tissues. Six mice (n=6 per group) were used in two independent experiments. ap<0.01 & cp<0.001 versus non-Tg; bp<0.01 & dp<0.001 versus Tg by two-sample t-tests.
as §2
Hippocampal tissues were homogenized in TBS, pelleted for 30 min×150,000 g. […]

[4] = tested on: p65 and p50; assay: Nuclear translocation of p65 and p50 in BV-2 microglial cells (Western blot); type: cell-based; settings: 10 μM peptide 1 h, 1 μM fibrillar Aβ1-42
Protocol: FIG. 15 (A-F). Effect of wtTIDM peptide on fibrillar Aβ- and LPS-induced nuclear translocation of p65 and p50 in microglial cells. BV-2 microglial cells preincubated with 10 μM wtTIDM peptide for 1 h were stimulated with either 1 μM fibrillar Aβ1-42 (A-C) or 1 μg/ml LPS (D-F) under serum-free condition. At different minute intervals, levels of p65 and p50 (A, fibrillar Aβ; D, LPS) were monitored in nuclear extracts by Western blot. Histone H3 was run as a loading control. Bands were scanned and values of p65/H3 (B & E) and p50/H3 (C & F) are presented as relative to control (n=2 replicates/condition in 3 independent experiments). ap<0.05, bp<0.001 vs control; cp<0.01 vs 30 min stimulation; dp<0.05 vs 15 min stimulation; NS, not significant by two-sample t-tests.

[5] = tested on: 5×FAD Tg mice; assay: Barnes maze and T maze in 5×FAD Tg mice; type: in vivo, mouse
Description: FIG. 6 (A-N). Intranasal delivery of wtTIDM, but not mTIDM, peptide inhibits neuronal apoptosis in vivo in the hippocampus and improves memory and learning in Tg mice. […] After 30 d of treatment, mice were sacrificed and hippocampal sections were double-labeled for TUNEL & NeuN (A). […] Hippocampal extracts of all groups of mice (n=4) were immunoblotted for cleaved caspase 3 (D). Actin was run as loading control. E) Bands were scanned and values (cleaved caspase 3/Actin) are presented as relative to non-Tg control. […] Protein levels of PSD-95. NR2A and GluR1 were monitored in hippocampal extracts by Western blot (F). Bands were scanned and values (G, PSD-95/Actin; H, NR2A/Actin; I, GluR1/Actin) are presented as relative to non-Tg control. […] Mice were tested for Barnes maze (J, latency; K, number of errors made) and T maze (L, number of positive turns; M, number of negative turns). Short-term memory was also monitored by novel object recognition test, which is represented by discrimination index (N). Eight mice (n=8) were used in each group and results were analyzed by one-way ANOVA.
Maze experiments were performed as described by us (52, 57). Briefly, for Barnes maze, mice were trained for 2 consecutive days followed by examination on day 3. […]

T1 sequence (Q9QUN7 640-784): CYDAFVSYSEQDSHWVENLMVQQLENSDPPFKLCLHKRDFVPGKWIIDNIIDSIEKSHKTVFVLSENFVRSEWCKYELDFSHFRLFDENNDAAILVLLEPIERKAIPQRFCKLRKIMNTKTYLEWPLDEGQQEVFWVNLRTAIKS

Structure (SMILES): CC[C@H](C)[C@H](NC(=O)[C@H](CCCCN)NC(=O)[C@@H](NC(=O)[C@H](CCC(N)=O)NC(=O)[C@H](CCCNC(=N)N)NC(=O)[C@@H](N)CC(=O)O)[C@@H](C)CC)C(=O)N[C@@H](Cc1c[nH]c2ccccc12)C(=O)N[C@@H](Cc1ccccc1)C(=O)N[C@@H](CCC(N)=O)C(=O)N[C@@H](CC(N)=O)C(=O)N[C@@H](CCCNC(=N)N)C(=O)N[C@@H](CCCNC(=N)N)C(=O)N[C@@H](CCSC)C(=O)N[C@@H](CCCCN)C(=O)N[C@@H](Cc1c[nH]c2ccccc12)C(=O)N[C@@H](CCCCN)C(=O)N[C@@H](CCCCN)C(=O)N1CCC[C@H]1C(=O)NCC(=O)N[C@@H](C)C(=O)N[C@@H](Cc1c[nH]cn1)C(=O)N[C@@H](CCC(N)=O)C(=O)N[C@@H](CCCCN)C(=O)O [wtTIDM, drqikiwfqnrrmkwkkPGAHQK]
- inhibition of interaction between newly-formed cTLR2 and MyD88 [1]: inhibited
- Iba-1 and phospho-p65 in the hippocampus [2]: suppression
- expression of iNOS in the hippocampus [2]: suppressed
- Aβ (plaques, Western blot, ELISA of Aβ1-40 and Aβ1-42 in serum and hippocampus) [3]: significant decrease
- inhibition of nuclear translocation of p65 and p50, fibrillar Aβ1-42 [4]: inhibited
- memory functions in Barnes maze (latency, number of errors) ([5]; 0.1 mg/kg body wt/2 d intranasal, 30 d): significantly improved
- spatial learning and memory in Tg mice ([5]; summary statement): improved

Source: patent US12251422B2, “Compositions and methods for treating neurological and other disorders” (Rush University Medical Center, priority 2018, dated 2025)
